Experimental data: patent US20230089582A1, “1,2,4-TRIAZINE-3,5-DIONE COMPOUND, PREPARATION METHOD THEREFOR, AND APPLICATION THEREOF” (KPC PHARMACEUTICALS, INC, priority 2019, published 2023)

What was measured:
in vitro = details: microsomes, pH 7.4
Description: The stop solution was an acetonitrile solution containing tolbutamide and propranolol (both internal standards).
Phosphate buffer was 100 mM K3PO4 (pH=7.4) buffer containing 3.3 mM MgCl2.
The liver microsome incubation system was in 100 mM phosphate buffer containing 0.2 mg/mL liver microsomal protein and 1 μM test substance/positive control.
80 μL of the mixture was transferred from the incubation system to 400 μL of stop solution to precipitate proteins, and 20 μL of NADPH regeneration system was added after vortexing as a 0 min sample point.
130 μL of NADPH regeneration system was added to the remaining 520 μL of protein drug mixture and mixed well to start incubation. The final incubation system was 650 μL, containing 0.2 mg/mL liver microsomal protein, 1 μM test substance/positive control, 1.3 mM NADP, 3.3 mM G-6-P and 0.6 U/mL G-6-PDH.

THRβ = target: T1, THRβ (Homo sapiens, UniProt P10828); experiment: THRβ binding assay (TR-FRET co-activating peptide recruitment); type: biochemical; details: THRβ-LBD/RXRα, SRC2-2 co-activating peptide recruitment, agonistic effect
T1 construct: RXRα and GST-tagged THRβ-LBD
Description: Experimental method: In vitro analysis of the agonistic effect of the compounds on THRβ was performed using a time-resolved fluorescence resonance energy transfer co-activating peptide recruitment assay. The assay used Eu-anti-GST antibody, biotin-SRC2-2 co-activating peptide, streptavidin-d2, RXRα and GST-tagged THRβ-LBD. The Eu-anti-GST antibody indirectly labeled THRβ-LBD by binding to GST tag. Streptavidin-d2 indirectly labeled the SRC2-2 co-activating peptide by binding to biotin tag. In the presence of RXRα, THRβ-LBD can form a heterodimer THRβ-LBD/RXRα with it. The agonist bound to THRβ-LBD/RXRα and caused a conformational change of THRβ-LBD, thereby increasing the recruitment capacity of the heterodimer to the SRC2-2 co-activating peptide. Furthermore, the resulting decreased distance between the d2-labeled SRC2-2 co-activating peptide and the Eu-anti-GST antibody increased the […] signal. The agonistic ability of a compound can be assessed based on the effect of different concentrations of the compound on THRβ activity.
The detailed procedure is as follows.
a. 100× reference compound or compound was prepared with DMSO and diluted in 1:3.
e. The plates were centrifuged at 1000 rpm for 1 min and incubated for 4 h at room temperature shielded from light.

THRα = THRα (Homo sapiens, UniProt P10827); experiment: THRα binding assay (TR-FRET co-activating peptide recruitment); type: biochemical; details: THRα instead of THRβ, agonistic effect
THRα, sequence (P10827 163-410 isoform P10827-2 limits assumed, other chains not shown): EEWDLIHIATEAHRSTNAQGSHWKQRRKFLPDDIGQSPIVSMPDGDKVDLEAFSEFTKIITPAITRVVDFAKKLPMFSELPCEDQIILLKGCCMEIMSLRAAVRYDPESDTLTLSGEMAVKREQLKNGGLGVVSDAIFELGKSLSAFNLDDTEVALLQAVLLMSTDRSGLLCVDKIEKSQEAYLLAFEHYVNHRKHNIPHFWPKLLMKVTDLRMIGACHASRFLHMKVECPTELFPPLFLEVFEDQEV
THRα, sequence (P19793 whole entry partner, other chains not shown): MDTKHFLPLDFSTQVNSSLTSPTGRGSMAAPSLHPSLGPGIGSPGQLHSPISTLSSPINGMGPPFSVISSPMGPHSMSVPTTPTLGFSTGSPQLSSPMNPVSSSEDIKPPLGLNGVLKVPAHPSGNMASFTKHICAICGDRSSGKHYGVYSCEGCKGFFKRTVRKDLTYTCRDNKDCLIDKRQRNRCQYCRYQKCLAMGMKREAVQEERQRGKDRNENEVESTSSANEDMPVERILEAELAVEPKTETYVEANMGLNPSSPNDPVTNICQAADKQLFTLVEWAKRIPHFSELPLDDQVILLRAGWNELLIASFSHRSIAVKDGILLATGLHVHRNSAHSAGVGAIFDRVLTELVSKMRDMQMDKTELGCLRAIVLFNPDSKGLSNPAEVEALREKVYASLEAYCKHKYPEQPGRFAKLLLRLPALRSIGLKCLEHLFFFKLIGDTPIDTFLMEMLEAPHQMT

T1 sequence (P10828 217-461 limits assumed, other chains not shown): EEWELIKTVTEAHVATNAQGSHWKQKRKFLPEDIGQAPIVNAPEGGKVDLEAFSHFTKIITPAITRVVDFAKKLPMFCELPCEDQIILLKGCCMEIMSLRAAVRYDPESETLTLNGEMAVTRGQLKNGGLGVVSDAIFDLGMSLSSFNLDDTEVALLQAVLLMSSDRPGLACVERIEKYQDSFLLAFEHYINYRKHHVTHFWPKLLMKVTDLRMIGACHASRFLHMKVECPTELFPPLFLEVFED
T1 sequence (P19793 whole entry partner, other chains not shown, the tested form may be a part): as the sequence (P19793 whole entry partner, other chains not shown) above

| Compound | EC50 (THRβ) | Emax (THRβ) | EC50 (THRα) | Emax (THRα) | further results |
| --- | --- | --- | --- | --- | --- |
| CC(C)c1cc(Oc2c(Cl)cc(-n3nc(C#N)c(=O)[nH]c3=O)cc2Cl)n[nH]c1=O [Control compound 2, MGL-3196, reference compound] | – | – | – | – | half-life at 1 μM (in vitro; dog): 2 h; microsomal CLint at 1 μM (in vitro; dog): 28.9 µL/min/mg; half-life at 1 μM (in vitro; human): 5.18 h; microsomal CLint at 1 μM (in vitro; human): 11.2 µL/min/mg; half-life at 1 μM (in vitro; monkey): 4.96 h; microsomal CLint at 1 μM (in vitro; monkey): 11.6 µL/min/mg; half-life at 1 μM (in vitro; rat): 12.8 h; microsomal CLint at 1 μM (in vitro; rat): 4.5 µL/min/mg |
| CC(C)c1cc(Oc2c(Cl)cc(-n3nc(CF)c(=O)[nH]c3=O)cc2Cl)n[nH]c1=O [Example 2] | 5 nM | 92.8% | 190 nM | 107% | half-life at 1 μM (in vitro; dog): 4.4 h; microsomal CLint at 1 μM (in vitro; dog): 13.1 µL/min/mg; half-life at 1 μM (in vitro; human): 17.1 h; microsomal CLint at 1 μM (in vitro; human): 3.4 µL/min/mg; half-life at 1 μM (in vitro; monkey): 8.92 h; microsomal CLint at 1 μM (in vitro; monkey): 6.5 µL/min/mg; half-life at 1 μM (in vitro; mouse): 3.12 h; microsomal CLint at 1 μM (in vitro; mouse): 18.5 µL/min/mg; half-life at 1 μM (in vitro; rat): 12.3 h; microsomal CLint at 1 μM (in vitro; rat): 4.7 µL/min/mg |
| O=c1[nH]nc(Oc2c(Cl)cc(-n3nc(CF)c(=O)[nH]c3=O)cc2Cl)cc1C1CCCCC1 [Example 9, 2-(3,5-dichloro-4-((5-cyclohexyl-6-oxo-1,6-dihydropyridazin-3-yl)oxy)phenyl)-6-(fluoromethyl)-1,2,4-triazine-3,5(2H,4H)-dione] | 101 nM | 108% | 4260 nM | 123% | – |
| O=c1[nH]nc(Oc2c(Cl)cc(-n3nc(CF)c(=O)[nH]c3=O)cc2Cl)cc1C1CCCC1 [Example 10, 2-(3,5-dichloro-4-((5-cyclopentyl-6-oxo-1,6-dihydropyridazin-3-yl)oxy)phenyl)-6-(fluoromethyl)-1,2,4-triazine-3,5(2H,4H)-dione] | 94 nM | 110% | 1410 nM | 112% | – |
| O=c1[nH]nc(Oc2c(Cl)cc(-n3nc(CF)c(=O)[nH]c3=O)cc2Cl)cc1C1CC1 [Example 12, 2-(3,5-dichloro-4-((5-cyclopropyl-6-oxo-1,6-dihydropyridazin-3-yl)oxy)phenyl)-6-(fluoromethyl)-1,2,4-triazine-3,5(2H,4H)-dione] | 71 nM | 105% | 210 nM | 127% | – |
| O=c1[nH]nc(Oc2c(Cl)cc(-n3nc(CF)c(=O)[nH]c3=O)cc2Cl)cc1C1CCC1 [Example 14, 2-(3,5-dichloro-4-((5-cyclobutyl-6-oxo-1,6-dihydropyridazin-3-yl)oxy)phenyl)-6-(fluoromethyl)-1,2,4-triazine-3,5(2H,4H)-dione] | 42 nM | 117% | 230 nM | 124% | – |
| CC(C)(F)c1cc(Oc2c(Cl)cc(-n3nc(CF)c(=O)[nH]c3=O)cc2Cl)n[nH]c1=O [Example 16, 3-(3,5-dichloro-4-((5-(2-fluoropropan-2-yl)-6-oxo-1,6-dihydropyridazin-3-yl)oxy)phenyl)-6-(fluoromethyl)-1,2,4-triazine-3,5(2H,4H)-dione] | 164 nM | 111% | – | – | – |
| C=C(C)c1cc(Oc2c(Cl)cc(-n3nc(CF)c(=O)[nH]c3=O)cc2Cl)n[nH]c1=O [Example 18, 2-(3,5-dichloro-4-((6-oxo-5-(prop-1-en-2-yl)-1,6-dihydropyridazin-3-yl)oxy)phenyl)-6-(fluoromethyl)-1,2,4-triazine-3,5(2H,4H)-dione] | 23.6 nM | 124% | – | – | – |
| CC(C)c1cc(Oc2c(Cl)cc(-n3nc(C4CC4)c(=O)[nH]c3=O)cc2Cl)n[nH]c1=O [Example 19, 6-cyclopropyl-2-(3,5-dichloro-4-((5-isopropyl-6-oxo-1,6-dihydropyridazin-3-yl)oxy)phenyl)-1,2,4-triazine-3,5(2H,4H)-dione] | 7250 nM | 77.7% | – | – | – |
| CC(C)c1cc(Oc2c(Cl)cc(-n3nc(O)c(=O)[nH]c3=O)cc2Cl)n[nH]c1=O [Example 20, 2-(3,5-dichloro-4-((5-isopropyl-6-oxo-1,6-dihydropyridazin-3-yl)oxy)phenyl)-6-hydroxy-1,2,4-triazine-3,5(2H,4H)-dione] | > 10000 nM | – | – | – | – |
